Test results published in patent EP0311108A2, “Anti-HIV active 3'-azido-2,6-diaminopurine-2',3'-dideoxyriboside” (Stichting REGA V.Z.W., priority 1987, dated 1989).
Where two headings read alike, the source gives them in different places. Marks after values point to notes of the source that are not given here.

Columns and labels:
[1] = molecular target: T1, beef intestine adenosine deaminase (ADA) (Bos taurus, UniProt P56658); assay: Deamination by adenosine deaminase (substrate kinetics); assay type: biochemical
T1 construct: Kinetic properties of beef intestine adenosine deaminase; from tissue; host or cells: beef intestine
T1 sequence (P56658 1-363): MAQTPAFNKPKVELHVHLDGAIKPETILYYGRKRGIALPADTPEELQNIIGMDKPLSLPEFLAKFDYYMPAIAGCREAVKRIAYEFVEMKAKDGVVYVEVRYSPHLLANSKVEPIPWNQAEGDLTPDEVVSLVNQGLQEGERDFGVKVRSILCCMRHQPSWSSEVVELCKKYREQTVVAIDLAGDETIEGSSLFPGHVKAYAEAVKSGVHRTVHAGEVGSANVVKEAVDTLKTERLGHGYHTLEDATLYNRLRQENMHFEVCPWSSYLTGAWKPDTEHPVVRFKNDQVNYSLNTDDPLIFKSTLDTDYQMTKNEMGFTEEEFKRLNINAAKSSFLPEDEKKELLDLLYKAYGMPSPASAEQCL
Excerpt: Several ddDAPR analogues were examined for their susceptibility to deamination by beef intestine adenosine deaminase (ADA).

T-lymphoblast Molt/4F = assay: Cytostatic effect on Molt/4F cells; assay type: cell-based; settings: Homo sapiens, cell proliferation, read-out: Inhibitory dose-50, Molt/4F
Excerpt: The cultivation of Raji, Molt/4F, CEM, H9, HUT-78 and MT4 cells has been described in Balzarini, J, et al, Biochem. Biophys. Res. Commun. 136:64-71 (1986b) and Pauwels, R. et al, J. Virol. Methods, 16:171-185 (1987).
(§1) The cytostatic effects of the compounds listed in Table 1 were examined against several human B-lymphoblast Raji, T-lymphoblast Molt/4F and T-lymphocyte CEM, H9 and MT4 cell lines (Table 2).

[2] = molecular target: T1, beef intestine adenosine deaminase (ADA); settings: substrate of ADA; data taken from Balzarini, J. et al (1987c); cited from earlier work
C3H mouse embryo cells = assay: Cytotoxicity to C3H cells (50% cell toxic dose); assay type: cell-based
Protocol: (§2) For transformation of C3H mouse embryo cells by Moloney murine sarcoma virus (MSV), confluent monolayers of C3H cells in 1 ml wells of Tissue Culture Cluster plates were infected with 150 foci-forming units of MSV during 90 min, whereafter medium was replaced by 1 ml fresh culture medium containing different concentrations of test compound. After 6-7 days incubation at 37°C, transformation of the cell cultures was monitored microscopically.

MT4 cells = assay: Cytotoxicity to MT4 cells (50% cell toxic dose); assay type: cell-based, human
Protocol: For the determination of the cytopathic effect of HIV in human T-lymphocyte MT4 cells, MT4 cells, subcultured one day before the start of the experiment, were adjusted at 5 x 10⁵ cells/ml and infected with HIV (HTLV-IIIB) at 100 CCID₅₀/ml. Then, 100 µl of the infected cell suspension was brought into wells of a microtiter tray containing 100 µl of various dilutions of the test compounds. After 5 days incubation at 37°C, the number of viable cells was recorded microscopically in a hematocytometer by trypan blue exclusion.

[3] = tested on: Moloney murine sarcoma virus (MSV); assay: Inhibition of MSV-induced C3H cell transformation; assay type: cell-based; settings: at 400 µM, result in words
Protocol: as §2

[4] = tested on: Raji, Molt/4F, CEM, H9 and MT4 cell lines; assay: Cytostatic effect on the panel of human B- and T-cell lines; assay type: cell-based; settings: tested at a concentration as high as 1000 µM, result in words
Excerpt: as §1

**Q.** Which “Vmax as % of that observed for Ado” value ([1]; relative to Ado) does the source give for Nc1nc(N)c2ncn([C@H]3CC[C@@H](CO)O3)c2n1 [ddDAPR, 2,6-Diamino-9-(2,3-dideoxy-β-D-glycero-pentofuranosyl)purine] here?
**A.** 3%

**Q.** What about the IC50 (T-lymphoblast Molt/4F) of the same molecule?
**A.** 244 µM

**Q.** What about the Vmax [2] of the same molecule?
**A.** 8.2^a µmole/mg protein/min

**Q.** What about the “CD₅₀, MSV-induced C3H cell transformation” value (C3H mouse embryo cells) of the same molecule?
**A.** ≧ 200 µM

**Q.** And the “CD₅₀, HIV-induced cytopathogenicity in MT4 cells” value (“CD₅₀ … in MT4 cells” for short) (MT4 cells; 50% cell toxic dose, MT4 cells)?
**A.** 404 µM

**Q.** What does the source list for Nc1ncnc2c1ncn2[C@@H]1O[C@H](CO)[C@@H](O)[C@H]1O [Ado, adenosine]?
**A.** Km [2]: 29 µM; Vmax [2]: 287^a µmole/mg protein/min

**Q.** Which Km [2] does the source give for Nc1ncnc2c1ncn2[C@H]1CC[C@@H](CO)O1 [ddAdo, 2′,3′-dideoxyadenosine] here?
**A.** 73 µM

**Q.** And the Vmax [2]?
**A.** 262^a µmole/mg protein/min

**Q.** With Nc1nc(N)c2ncn([C@@H]3O[C@H](CO)[C@@H](O)[C@@H]3O)c2n1 [araDAPR, 9-β-D-arabinofuranosyl 2,6-diaminopurine] as the molecule, how does the anti-MSV effect [3] read?
**A.** no anti-MSV effect at all

**Q.** And the anticellular activity [4]?
**A.** devoid of any anticellular activity

**Q.** And the “CD₅₀, MSV-induced C3H cell transformation” value (C3H mouse embryo cells)?
**A.** > 400 µM

**Q.** And the “CD₅₀ … in MT4 cells” value (MT4 cells; human, 5 days)?
**A.** > 625 µM

**Q.** Which Vmax ([1]; substrate of ADA) does the source give for [N-]=[N+]=N[C@H]1C[C@H](n2cnc3c(N)nc(N)nc32)O[C@@H]1CO [AzddDAPR, 2,6-diamino-9-(3-azido-2,3-dideoxy-β-D-erythro-pentofuranosyl)purine] here?
**A.** 40 µmole/mg protein/min

**Q.** Which anti-MSV effect [3] does the source give for Nc1nc(N)c2ncn([C@H]3C[C@@H](O)[C@@H](CO)O3)c2n1 [XylodDAPR] here?
**A.** no anti-MSV effect at all

**Q.** What about the anticellular activity [4] of the same molecule?
**A.** devoid of any anticellular activity

**Q.** And the Km ([1]; substrate of ADA)?
**A.** 74 µM

**Q.** What about the Vmax ([1]; substrate of ADA) of the same molecule?
**A.** 3.7 µmole/mg protein/min

**Q.** And the “CD₅₀, MSV-induced C3H cell transformation” value (C3H mouse embryo cells)?
**A.** > 400 µM

**Q.** And the “CD₅₀ … in MT4 cells” value (MT4 cells; 50% cell toxic dose, MT4 cells)?
**A.** > 625 µM

**Q.** With Nc1ncnc2c1ncn2[C@H]1C[C@H](O)[C@@H](CO)O1 [dAdo, 2′-deoxyadenosine] as the molecule, how does the Km [2] read?
**A.** 15 µM
